Patent US20110160136A1, “POLYPHENOLS FOR THE TREATMENT OF CARTILAGE DISORDERS” (NESTEC S.A., priority 2008, published 2011)

The molecules below were run on Articular cartilage explants (assay: IL1β-induced glycosaminoglycan (GAG) release from 35S-labelled articular cartilage explants). Conditions: polyphenolic compounds extracted e.g. from rosemary plants; qualitative statement.
Type: cell-based, cows
Text: Articular cartilage explants are dissected out of the metacarpophalangeal joint of old cows (8-10 years). The skin is removed from the feet. The articulation is opened transversally. Intra articular ligaments are transected. Full thickness slices of cartilage are dissected out and put in a Petri dish containing DMEM supplemented with 20% FBS ([…]) and antibiotics (penicillin, streptomycin and gentamycin). Under the hood, disks of cartilage obtained by using a biopsy punch (6 mm in diameter) are distributed between the wells of a 96-wells plate containing 200 μl of medium (DMEM+20% FBS, 1% penicillin/streptomycin, 0.1% gentamycin) per well. Finally, plates are put into an incubator (37° C./5% CO2).
Five days after their harvest, the explants are divided into several different treatment conditions:
1—negative control: the wells contain only culture medium. 2—positive stimulatory control: Interleukin 1β(IL1β) is added to the media at the concentration of 50 ng per ml. This cytokine is used to stimulate the catabolism and to induce inflammation. 3—positive inhibitory control: d15-PGJ2 (a peroxisome proliferator activated receptor γ agonist) and hymenialdisine are co-added, to the medium, with IL1β, to counteract the catabolic effect of this cytokine (Sabatini M, et al. (2002) Osteoarthritis Cartilage 10(9): 673-679; Scher J U, et al. (2005) Clin Immunol 114(2): 100-109; Boyault S, et al. (2001) Febs Letters 501(1): 24-30) 4, 5, 6, 7, 8 (if present)—tested compounds: these conditions test the effects of three concentrations of a polyphenol in presence of IL1β.
The explants undergo these treatments for 72 hours in the incubator (37° C., 5% CO2). The following protocol is based on the disclosure of Campbell et al. (1984) Arch Biochem Biophys 234(1): 275-289 and Hascall V C, et al. (1983) ArchBiochem Biophys 224(1): 206-223 and was carried out 48 hours after the harvest of the explants,
Sulphur 35 (35S) was added to the medium to be incorporated into newly synthesized polysulfated glycosaminoglycans within the extracellular matrix of the explants. After 72 hours, several washes were performed to eliminate the non-incorporated radioactivity. The explants were then treated for 72 hours, after which the supernatants were collected and the amount of radioactivity released in the medium was measured with a beta counter, as a marker of glycosaminoglycan (GAG) catabolism. The radioactivity present in the explants was also measured and used to normalize the amount of radioactivity released in the media. The radioactivity was expressed in DPM ([…]) and the GAG release was assessed by the following formula:
GAG release=radioactivity in the supernatants/(radioactivity in the supernatants+radioactivity in the explants)

Row | Structure (SMILES) | anti-catabolic potential
1 | O=c1c(O)c(-c2ccc(O)cc2)oc2cc(O)cc(O)c12 [kaempferol] | anti-catabolic potential
2 | COc1c(OC2OC(COC(=O)C=Cc3ccc(O)cc3)C(O)C(O)C2O)cc2oc(-c3ccc(O)c(O)c3)cc(=O)c2c1O (stereo not shown) [6″-Coumaroylnepitrin] | anti-catabolic potential
3 | CC(C)c1cc2c(c(O)c1O)[C@@]13CCCC(C)(C)[C@@H]1[C@H](OC3=O)[C@H]2O [rosmanol] | anti-catabolic potential
4 | CC(C)c1cc2c(c(O)c1O)C13CCCC(C)(C)C1C(OC3=O)C2O (stereo not shown) [7-epirosmannol] | anti-catabolic potential
5 | CC(C)c1cc2c(c(O)c1O)[C@@]13CCCC(C)(C)[C@@H]1C[C@@H]2OC3=O [carnosol] | anti-catabolic potential
6 | O=C(/C=C/c1ccc(O)c(O)c1)O[C@H](Cc1ccc(O)c(O)c1)C(=O)O [rosmarinic acid] | anti-catabolic potential
7 | COc1c(O)cc2oc(-c3ccc(O)c(O)c3)cc(=O)c2c1O [6-methoxy-luteolin] | anti-catabolic potential
8 | COc1cc(C=CC(=O)OCC2OC(Oc3cc4oc(-c5ccc(O)c(O)c5)cc(=O)c4c(O)c3OC)C(O)C(O)C2O)ccc1O (stereo not shown) [6″-Feruloylnepitrin] | anti-catabolic potential
9 | COc1cc2oc(-c3ccc(O)cc3)cc(=O)c2c(O)c1OC [cirsimaritin] | anti-catabolic potential
10 | O=c1cc(-c2ccc(O)c(O)c2)oc2cc(O)cc(O)c12 [luteolin] | anti-catabolic potential
